Read-outs that look alike come from different tables or passages of the source. Bridge positions count the residues as written; N and C are the ends. Ends that are not written are not given here. Peptide text beside a SMILES is read from it.
Legend:
[1] = target: T1, IDE (Homo sapiens, UniProt P14735); assay: biochemical; conditions: for IC50 <500 uM?: initial test at 500 uM; for IC50: FRET1, listed in Table 1, read-out: IC50, summary of results of the initial test; for Ki: substrate FRET1 5 μM, Ki from IC50 with the Cheng-Prusoff equation, read-out: Ki FRET1
T1 construct: made in house; host or cells: bacteria
T1 sequence (P14735 1-1019): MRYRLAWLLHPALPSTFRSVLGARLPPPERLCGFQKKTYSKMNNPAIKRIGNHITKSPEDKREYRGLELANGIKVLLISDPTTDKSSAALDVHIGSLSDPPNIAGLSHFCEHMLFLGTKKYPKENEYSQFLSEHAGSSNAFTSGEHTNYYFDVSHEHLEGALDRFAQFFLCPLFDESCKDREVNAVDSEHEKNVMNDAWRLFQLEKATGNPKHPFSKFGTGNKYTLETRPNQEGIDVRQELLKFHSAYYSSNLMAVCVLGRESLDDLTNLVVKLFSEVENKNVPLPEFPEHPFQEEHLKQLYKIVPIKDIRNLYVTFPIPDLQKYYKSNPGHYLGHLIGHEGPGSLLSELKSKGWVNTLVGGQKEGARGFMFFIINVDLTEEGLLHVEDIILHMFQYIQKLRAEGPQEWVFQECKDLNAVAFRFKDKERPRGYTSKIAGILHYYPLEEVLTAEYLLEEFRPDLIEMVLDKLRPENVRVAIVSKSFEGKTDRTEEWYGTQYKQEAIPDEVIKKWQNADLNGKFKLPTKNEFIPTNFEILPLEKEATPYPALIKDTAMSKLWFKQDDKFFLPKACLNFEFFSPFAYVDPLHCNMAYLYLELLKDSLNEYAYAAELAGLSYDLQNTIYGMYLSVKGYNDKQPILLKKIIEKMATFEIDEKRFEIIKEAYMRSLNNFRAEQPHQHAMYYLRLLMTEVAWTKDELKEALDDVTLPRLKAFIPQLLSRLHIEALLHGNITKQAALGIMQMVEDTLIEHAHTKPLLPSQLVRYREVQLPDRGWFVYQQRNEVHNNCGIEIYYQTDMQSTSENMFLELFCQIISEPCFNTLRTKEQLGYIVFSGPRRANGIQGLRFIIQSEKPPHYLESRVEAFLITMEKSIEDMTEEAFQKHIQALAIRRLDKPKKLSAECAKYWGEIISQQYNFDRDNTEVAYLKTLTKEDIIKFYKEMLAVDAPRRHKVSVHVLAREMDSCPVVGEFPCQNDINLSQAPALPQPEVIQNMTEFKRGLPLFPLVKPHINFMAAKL
Description: The six selected peptide sequences (C7C-1, C7C-2, 12–1, 12–2, 12–3 and 12–4) were synthesized, together with a variety of modifications, yielding a total of 25 peptides (Table 1). […] Other modifications included N-terminal acetylation and C-terminal amidation, included to mimic the charge state of the peptides when incorporated in the phage coat protein (Table 1).
IDE activity was quantified by monitoring the degradation of Mca-[…](Dnp) (FRET1, 5 μM), fluoresceinated and biotinylated amyloid ß-protein (FAßB; 500 nM) or recombinant human insulin (50 nM) in PBS supplemented with 0.05% BSA. […] In vitro activity assays incorporated recombinant human IDE (1 nM) purified from bacteria. For quantitation of insulin degradation in primary murine skin fibroblasts, cells (1 x 10^5/well) were plated in 96-well plates and maintained in DMEM supplemented with 10% fetal bovine serum (FBS), 2mM glutamine, penicillin and streptomycin. After addition of insulin (10 nM or 100 nM), samples of conditioned medium were removed daily and quickly frozen, then insulin levels were quantified in parallel by ELISA according to manufacturer’s recommendations (Crystal Chem, Downers Grove, IL, USA). Assessment of the activity of P12-3A against a variety of matrix-metalloproteases was conducted using the Matrix Metalloproteinase (MMP) Inhibitor Profiling Kit, Fluorometric RED (Enzo Life Sciences, Inc., Farmingdale, NY, USA) according to manufacturer’s recommendations using the broad-spectrum MMP inhibitor, NNGH, as a positive control.

[2] = target: T1, IDE; assay: biochemical; conditions: for IC50: from initial test at 10 uM using insulin (100 nM), read-out: IC50 (summary of results, listed in Table 1); for Ki: substrate recombinant human insulin 50 nM, Ki from IC50 with the Cheng-Prusoff equation
Excerpt: The six selected peptide sequences (C7C-1, C7C-2, 12–1, 12–2, 12–3 and 12–4) were synthesized, together with a variety of modifications, yielding a total of 25 peptides (Table 1). For the 12-mer peptides, we synthesized variants of the parent peptides truncated at one or both termini, to test whether the entire sequence was necessary or not, in the hope that shorter, and thus less expensive, sequences might be effective. Other modifications included N-terminal acetylation and C-terminal amidation, included to mimic the charge state of the peptides when incorporated in the phage coat protein (Table 1). To assess the extent to which these peptide sequences inhibit IDE, we quantified their potency in protease activity assays using recombinant human IDE and two different substrates: FRET1, a fluorogenic peptide, and recombinant human insulin.
IDE activity was quantified by monitoring the degradation of Mca-[…](Dnp) (FRET1, 5 μM), fluoresceinated and biotinylated amyloid ß-protein (FAßB; 500 nM) or recombinant human insulin (50 nM) in PBS supplemented with 0.05% BSA. FRET1 degradation was measured by changes in fluorescence (λex = 340 nm, λem = 420 nm); FAßB degradation was monitored by fluorescence polarization (λex = 488 nm, λem = 525 nm), as described; and insulin degradation was quantified by ELISA. In vitro activity assays incorporated recombinant human IDE (1 nM) purified from bacteria. For quantitation of insulin degradation in primary murine skin fibroblasts, cells (1 x 10^5/well) were plated in 96-well plates and maintained in DMEM supplemented with 10% fetal bovine serum (FBS), 2mM glutamine, penicillin and streptomycin. After addition of insulin (10 nM or 100 nM), samples of conditioned medium were removed daily and quickly frozen, then insulin levels were quantified in parallel by ELISA according to manufacturer’s recommendations (Crystal Chem, Downers Grove, IL, USA). Assessment of the activity of P12-3A against a variety of matrix-metalloproteases was conducted using the Matrix Metalloproteinase (MMP) Inhibitor Profiling Kit, Fluorometric RED (Enzo Life Sciences, Inc., Farmingdale, NY, USA) according to manufacturer’s recommendations using the broad-spectrum MMP inhibitor, NNGH, as a positive control.

[3] = initial test, percent of initial velocity relative to DMSO-only controls, N 4, read-out: Percent activity at 500 uM, Mean
[4] = initial test, percent of initial velocity relative to DMSO-only controls, individual replicates, read-out: Percent activity at 500 uM, Replicate 1-4
[5] = judged as IC50 <100 uM?, N 4, read-out: Percent activity at 500 uM, Mean
[6] = judged as IC50 <100 uM?, individual replicates, read-out: Percent activity at 500 uM, Replicate 1-4

Compound	IC50 <500 uM? [1]	remaining activity at 500 µM [1, 3] [%]	remaining activity at 500 µM [1, 4] [%]	remaining activity at 500 µM [1, 5] [%]	remaining activity at 500 µM [1, 6] [%]	IC50 <10 uM? ([2]; initial test at 10 uM using insulin (100 nM))	remaining activity at 0.016 µM ([2]; insulin ELISA, Cmpd 0.016 uM, Runs 1-3, read-out: Percent Activity (normalized source data)) [%]	remaining activity at 0.08 µM ([2]; insulin ELISA, Cmpd 0.08 uM, Runs 1-3, read-out: Percent Activity (normalized source data)) [%]	remaining activity at 0.4 µM ([2]; insulin ELISA, Cmpd 0.4 uM, Runs 1-3, read-out: Percent Activity (normalized source data)) [%]	remaining activity at 2 µM ([2]; insulin ELISA, Cmpd 2 uM, Runs 1-3, read-out: Percent Activity (normalized source data)) [%]	remaining activity at 10 µM ([2]; insulin ELISA, Cmpd 10 uM, Runs 1-3, read-out: Percent Activity (normalized source data)) [%]	IC50 [1] [µM]	Ki [1] [µM]	IC50 [2] [µM]	Ki [2] [µM]
CC[C@H](C)[C@@H]1NC(=O)[C@H](CO)NC(=O)[C@H](Cc2c[nH]c3ccccc23)NC(=O)[C@H](Cc2c[nH]c3ccccc23)NC(=O)[C@H](CO)NC(=O)[C@@H](NC(=O)[C@H](C)N)CSSC[C@@H](C(=O)NCC(N)=O)NC(=O)[C@H](CC(C)C)NC(=O)[C@H](Cc2c[nH]cn2)NC1=O [C7C-1A] (H-ACSWWSIHLCG-NH2; disulfide 2-10 (inferred))	YES	22.5	25.1	59.5	56.6										
CC[C@H](C)[C@@H]1NC(=O)[C@H](CO)NC(=O)[C@H](Cc2c[nH]c3ccccc23)NC(=O)[C@H](Cc2c[nH]c3ccccc23)NC(=O)[C@H](CO)NC(=O)[C@@H](NC(=O)[C@H](C)N)CSSC[C@@H](C(=O)NCC(=O)NCC(=O)NCC(=O)O)NC(=O)[C@H](CC(C)C)NC(=O)[C@H](Cc2c[nH]cn2)NC1=O [C7C-1B] (H-ACSWWSIHLCGGG-OH; disulfide 2-10 (inferred))	YES	30.4	30.3	56.8	63.2										
CC[C@H](C)[C@@H]1NC(=O)[C@H](CO)NC(=O)[C@H](Cc2c[nH]c3ccccc23)NC(=O)[C@H](Cc2c[nH]c3ccccc23)NC(=O)[C@H](CO)NC(=O)[C@@H](NC(=O)[C@H](C)N)CSSC[C@@H](C(=O)NCC(=O)O)NC(=O)[C@H](CC(C)C)NC(=O)[C@H](Cc2c[nH]cn2)NC1=O [C7C-1] (H-ACSWWSIHLCG-OH; disulfide 2-10 (inferred))	YES	11.4		44.2	52	YES	75	93.7	66.1	73.9	51.8				
CC(C)C[C@@H]1NC(=O)[C@H](Cc2c[nH]cn2)NC(=O)CNC(=O)[C@H](C)NC(=O)[C@H](CC(N)=O)NC(=O)[C@@H](NC(=O)[C@H](C)N)CSSC[C@@H](C(=O)NCC(N)=O)NC(=O)[C@H](CCC(N)=O)NC(=O)[C@H](CO)NC1=O [C7C-2A] (H-ACNAGHLSQCG-NH2; disulfide 2-10 (inferred))		94.1		92.7	92.5										
CC(C)C[C@@H]1NC(=O)[C@H](Cc2c[nH]cn2)NC(=O)CNC(=O)[C@H](C)NC(=O)[C@H](CC(N)=O)NC(=O)[C@@H](NC(=O)[C@H](C)N)CSSC[C@@H](C(=O)NCC(=O)O)NC(=O)[C@H](CCC(N)=O)NC(=O)[C@H](CO)NC1=O [C7C-2] (H-ACNAGHLSQCG-OH; disulfide 2-10 (inferred))		54	48.4	72.8	76.4										
Ac-FPMPSRPH-NH2 [P12-2D]					88.8							> 500	> 500	> 10	> 10
Ac-MPSRPHSS [P12-2C]					72.7							> 500	> 500	> 10	> 10
Ac-PISGKFFQ-NH2 [P12-4D]			74.3		91.1							> 500	≥ 500	> 10	≥ 10
Ac-SGKFFQRF [P12-4C]			59.7		77.6							> 500	≥ 500	> 10	≥ 10
LNFPMPSR-NH2 [P12-2B]			81.3									> 500	> 500	> 10	> 10
LNFPMPSRPHSS [P12-2]	YES				59.9							> 100	> 100	> 10	> 10
LNFPMPSRPHSS-NH2 [P12-2A]	YES		31.8		58.5							> 100	> 100	> 10	> 10
WSPISGKF-NH2 [P12-4B]			76.6		86.6							> 500	≥ 500	> 10	≥ 10

Reference: paper PMC5814047, “Peptidic inhibitors of insulin-degrading enzyme with potential for dermatological applications discovered via phage display” (PLoS ONE, 2018)
